The values below come from ChEMBL document CHEMBL6120992, “Breviane Spiroditerpenoids with Anti-inflammatory and Antiviral Activities from Deep-Sea-Derived Fungus Penicillium sp. F59” (J Nat Prod, 2025).

For test [1], the system named is RAW264.7. Nature of the test: Antiinflammatory activity in LPS-induced mouse RAW264.7 cells assessed as inhibition of nitric oxide secretion at 20 microM incubated for 24 hrs by Griess reagent based assay relative to control. It counts as functional.
Test [2] relates to RAW264.7. The test is described as follows: Cytotoxicity against mouse RAW264.7 cells assessed as cell viability at 20 microM incubated for 24 hrs by CCK-8 method relative to control. The conditions noted are these: read-out: Activity. It is filed as functional.
Test [3] concerns SARS-CoV-2. The test is described as follows: Antiviral activity against SARS-CoV-2 Omicron BA.2 pseudovirus infected in human 293T/ACE2 cells assessed as virus inhibition at 50 microM incubated for 24 hrs by firefly luciferase assay relative to control. It is filed as functional. The conditions noted are these: Severe acute respiratory syndrome coronavirus 2, Omicron BA.2, 293T/ACE2.

Test [4] is described as follows: Cytotoxicity against human 293T/ACE2 cells assessed as cell viability at 100 microM incubated for 24 hrs by CellTiter assay relative to control. The settings on record: read-out: Activity. It counts as functional.
Test [5] concerns SARS-CoV-2. The test is described as follows: Antiviral activity against SARS-CoV-2 Omicron BA.2 pseudovirus infected in human 293T/ACE2 cells assessed as virus inhibition incubated for 24 hrs by firefly luciferase assay. It is filed as functional, organism-based. The settings on record: Severe acute respiratory syndrome coronavirus 2, Omicron BA.2, 293T/ACE2, 24 h.
In test [6] the test system is RAW264.7. Nature of the test: Antiinflammatory activity in LPS-induced mouse RAW264.7 cells assessed as inhibition of nitric oxide secretion incubated for 24 hrs by Griess reagent based assay. It is filed as functional, cell-based. The conditions noted are these: RAW264.7, 24 h. (Nitrite, measured by Griess reagent, commonly stands in for NO production.)

As a reminder, the inhibition is the relative decrease from the control value, in per cent. In general, IC50 refers to the concentration at which inhibition is half-maximal.

Structures are written as SMILES.

For `CC1=C[C@H](O)[C@@H]2[C@@]3(C)[C@H](O)C(=O)[C@H](O)C(C)(C)[C@@H]3CC[C@@]2(C)[C@]12Cc1c(c(C)c(C)oc1=O)O2`, the inhibition at 20 µM in the test on RAW264.7 [1] is 35%. Further, the viability at 20 µM in the test on RAW264.7 [2] amounted to 100%. Moreover, in the test on SARS-CoV-2 [3], the inhibition at 50 µM worked out at 11%. In addition, in test [4], the viability at 100 µM came to 93%.

For the compound `CC1=CC(=O)C[C@@H]2O[C@@H]3C=C(C)[C@]4(Oc5c(C)c(C)oc(=O)c5[C@@H]4O)[C@]4(C)CC[C@@H]1[C@@]2(C)[C@@H]34`, the inhibition at 20 µM in the test on RAW264.7 [1] amounted to 52%. The viability at 20 µM in the test on RAW264.7 [2] was determined as 100%. In the test on SARS-CoV-2 [3], the inhibition at 50 µM was 43%. Moreover, the viability at 100 µM in test [4] worked out at 92%.

Take `CC(=O)O[C@@H]1O[C@@H]2C/C(=C(/C)C(C)=O)O[C@]23C(C)=C[C@H]2O[C@H]4CC(=O)C=C(C)[C@@H]5CC[C@@]13[C@H]2[C@@]45C`: the inhibition at 20 µM in the test with RAW264.7 [1] was 34%. Further, the viability at 20 µM with RAW264.7 [2] stood at 100%. The inhibition at 50 µM with SARS-CoV-2 [3] stood at 57%. Further, the viability at 100 µM in test [4] came out at 92%.

As to `CC1=CC[C@@H]2[C@@]3(C)C=CC(=O)[C@@](C)(CO)[C@@H]3CC[C@@]2(C)[C@]12Cc1c(c(C)c(C)oc1=O)O2`, the inhibition at 20 µM with RAW264.7 [1] was determined as 49%. Besides, the viability at 20 µM in the test with RAW264.7 [2] came out at 87%. Moreover, the inhibition at 50 µM in the test with SARS-CoV-2 [3] stood at 14%. Further, the viability at 100 µM in test [4] was found to be 97%.

As to `CC1=CC(=O)C=C[C@]2(C)[C@H]3C(=O)C=C(C)[C@]4(Oc5c(C)c(C)oc(=O)c5[C@@H]4O)[C@]3(C)CC[C@@H]12`, the inhibition at 20 µM with RAW264.7 [1] was 47%. Moreover, the viability at 20 µM in the test on RAW264.7 [2] is 91%. The inhibition at 50 µM in the test on SARS-CoV-2 [3] is 46%. Besides, the viability at 100 µM in test [4] was found to be 98%.

Turning to `CO[C@H]1c2c(c(C)c(C)oc2=O)O[C@]12C(C)=C[C@H]1O[C@H]3CC(=O)C=C(C)[C@@H]4CC[C@]2(C)[C@H]1[C@@]34C`, in the test with RAW264.7 [1], the inhibition at 20 µM amounted to 57%. The viability at 20 µM with RAW264.7 [2] was found to be 85%. Also, the inhibition at 50 µM with SARS-CoV-2 [3] worked out at 0%. Besides, the viability at 100 µM in test [4] came out at 92%.

Consider `CC(=O)/C(C)=C1\C[C@H]2O[C@@H](O)[C@]34CC[C@H]5C(C)=CC(=O)C[C@@H]6O[C@H](C=C(C)[C@@]23O1)[C@@H]4[C@@]65C`, for which the inhibition at 20 µM in the test on RAW264.7 [1] came out at 38%. For the same compound, the viability at 20 µM in the test on RAW264.7 [2] worked out at 100%. Further, in the test on SARS-CoV-2 [3], the inhibition at 50 µM turned out to be 0%. The viability at 100 µM in test [4] worked out at 90%.

With `CC1=CC(=O)[C@@H]2[C@@]3(C)[C@H](O)CC(=O)C(C)(C)[C@@H]3CC[C@@]2(C)[C@]12Cc1c(c(C)c(C)oc1=O)O2`, the inhibition at 20 µM in the test with RAW264.7 [1] worked out at 45%. In addition, the viability at 20 µM in the test on RAW264.7 [2] turned out to be 99%. Also, the inhibition at 50 µM in the test on SARS-CoV-2 [3] was 28%. The viability at 100 µM in test [4] was 91%.

Consider `CC(=O)/C(C)=C1/C[C@H]2O[C@@H](O)[C@]34CC[C@H]5C(C)=CC(=O)C[C@@H]6O[C@H](C=C(C)[C@@]23O1)[C@@H]4[C@@]65C`, for which, in the test with RAW264.7 [1], the inhibition at 20 µM came to 31%. Besides, the viability at 20 µM with RAW264.7 [2] was 96%. Also, the inhibition at 50 µM with SARS-CoV-2 [3] was 15%. In test [4], the viability at 100 µM is 92%.

Turning to `CC1=CC(=O)C=C[C@]2(C)[C@H]3[C@@H](O)[C@@H]4O[C@]4(C)[C@@]4(Cc5c(c(C)c(C)oc5=O)O4)[C@]3(C)CC[C@@H]12`, the inhibition at 20 µM with RAW264.7 [1] is 63%. The viability at 20 µM with RAW264.7 [2] was found to be 100%. In addition, the IC50 in the test with SARS-CoV-2 [5] was found to be 10.3 µM. Moreover, in the test on SARS-CoV-2 [3], the inhibition at 50 µM was determined as 69%. The viability at 100 µM in test [4] stood at 99%.

Consider `CC1=CC(=O)C[C@@H]2O[C@@H]3C=C(C)[C@@]45Oc6c(C)c(C)oc(=O)c6[C@@H]4O[C@@H](O)[C@]54CC[C@@H]1[C@@]2(C)[C@@H]34`, for which the inhibition at 20 µM in the test with RAW264.7 [1] was 35%. The viability at 20 µM with RAW264.7 [2] turned out to be 100%. The inhibition at 50 µM with SARS-CoV-2 [3] turned out to be 0%. For the same compound, in test [4], the viability at 100 µM came out at 99%.

As for `CC1=CC(=O)C=C[C@]2(C)[C@H]3[C@@H](O)C=C(C)[C@@]4(Cc5c(c(C)c(C)oc5=O)O4)[C@]3(C)CC[C@@H]12` [BREVIONE F], the inhibition at 20 µM with RAW264.7 [1] came to 79%. The IC50 in the test with RAW264.7 [6] is 12.9 µM. The viability at 20 µM with RAW264.7 [2] is 100%. Further, the inhibition at 50 µM in the test on SARS-CoV-2 [3] worked out at 5%. In addition, the viability at 100 µM in test [4] worked out at 97%.

As to `CC1=CC(=O)C=C[C@]2(C)[C@H]3C(O)C=C(C)[C@@]4(Cc5c(c(C)c(C)oc5=O)O4)[C@]3(C)CC[C@@H]12` (stereo partly drawn), the inhibition at 20 µM in the test with RAW264.7 [1] worked out at 94%. The IC50 in the test with RAW264.7 [6] is 9.2 µM. Moreover, in the test with RAW264.7 [2], the viability at 20 µM was 98%. In the test on SARS-CoV-2 [3], the inhibition at 50 µM was 0%. In addition, the viability at 100 µM in test [4] turned out to be 93%.

For `CC1=CC(=O)[C@@H]2[C@@]3(C)C=CC(=O)C(C)(C)[C@@H]3CC[C@@]2(C)[C@]12Cc1c(c(C)c(C)oc1=O)O2`, the inhibition at 20 µM in the test on RAW264.7 [1] came out at 87%. Also, the 50% inhibitory concentration (IC50) with RAW264.7 [6] turned out to be 5.3 µM. Besides, in the test with RAW264.7 [2], the viability at 20 µM is 100%. Besides, the inhibition at 50 µM in the test with SARS-CoV-2 [3] came to 23%. The viability at 100 µM in test [4] was 95%.

`CC1=CC(=O)C[C@@H]2O[C@@H]3C=C(C)[C@@]4(Cc5c(c(C)c(C)oc5=O)O4)[C@]4(C)CC[C@@H]1[C@@]2(C)[C@@H]34`: the inhibition at 20 µM in the test with RAW264.7 [1] stood at 25%. Further, the viability at 20 µM in the test on RAW264.7 [2] turned out to be 100%. In the test on SARS-CoV-2 [3], the inhibition at 50 µM was 0%. For the same compound, in test [4], the viability at 100 µM amounted to 95%.

For `CC1=C[C@H](O)[C@@H]2[C@@]3(C)C[C@@H](O)C(=O)C(C)(C)[C@@H]3CC[C@@]2(C)[C@]12Cc1c(c(C)c(C)oc1=O)O2`, the inhibition at 20 µM with RAW264.7 [1] stood at 38%. Besides, the viability at 20 µM in the test on RAW264.7 [2] was 100%. For the same compound, the inhibition at 50 µM with SARS-CoV-2 [3] came to 0%. In addition, the viability at 100 µM in test [4] stood at 93%.

As to `CC1=CC(=O)C=C[C@]2(C)[C@H]3CC=C(C)[C@@]45Oc6c(C)c(C)oc(=O)c6[C@@H]4O[C@@H](O)[C@@]35CC[C@@H]12`, in the test on RAW264.7 [1], the inhibition at 20 µM came out at 69%. Further, the viability at 20 µM in the test with RAW264.7 [2] is 91%. The inhibition at 50 µM in the test on SARS-CoV-2 [3] amounted to 28%. Further, in test [4], the viability at 100 µM was 93%.

With `CC1=CC(=O)C=C[C@]2(C)[C@H]3[C@@H]4C=C(C)[C@@]56Oc7c(C)c(C)oc(=O)c7[C@@H]5O[C@@H](O4)[C@@]36CC[C@@H]12`, the inhibition at 20 µM in the test on RAW264.7 [1] came out at 98%. For the same compound, the IC50 in the test on RAW264.7 [6] is 1.4 µM; in the test on SARS-CoV-2 [5], 8.5 µM. Also, the viability at 20 µM in the test with RAW264.7 [2] stood at 93%. For the same compound, the inhibition at 50 µM with SARS-CoV-2 [3] was 95%. Further, the viability at 100 µM in test [4] was 94%.

On to `CC1=CC(=O)C[C@@H]2O[C@@H]3C=C(C)[C@@]45Oc6c(C)c(C)oc(=O)c6[C@@H]4OC[C@]54CC[C@@H]1[C@@]2(C)[C@@H]34`, for which the inhibition at 20 µM in the test on RAW264.7 [1] came out at 45%. Also, in the test on RAW264.7 [2], the viability at 20 µM worked out at 93%. Further, in the test on SARS-CoV-2 [3], the inhibition at 50 µM was determined as 16%. Further, the viability at 100 µM in test [4] was found to be 90%.

For the compound `CC(C)(C)c1ccc(S(=O)(=O)/C=C/C#N)cc1` [BAY-11-7085], the inhibition at 20 µM with RAW264.7 [1] was 77%. Moreover, the half-maximal inhibitory concentration (IC50) in the test on RAW264.7 [6] came out at 13.3 µM; in the test with SARS-CoV-2 [5] it was 0.74 µM. The viability at 20 µM in the test on RAW264.7 [2] was determined as 100%. Also, the inhibition at 50 µM in the test with SARS-CoV-2 [3] was found to be 99%. Also, the viability at 100 µM in test [4] amounted to 99%.
